PubChem BioAssay AID330 (DTP/NCI, 2004)
“And” between values parts separate entries of the source, which are not always exact repeats. Identical values can stand only once. Toxic doses and inconclusive results are not listed.

Test system: P388 leukemia ip, CD2F1 mice, survival T/C
Assay: NCI In Vivo Anticancer Drug Screen. Data for tumor model P388 Leukemia (intraperitoneal) in CD2F1 (CDF1) mice
Conditions: endpoint: median survival time, higher = longer survival
Summary of the method: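 Mice carrying the transplanted tumor received test compound or vehicle. Survival was recorded in each group, and the value is the treated-group measurement divided by that of the vehicle-treated control group.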

[1] = dose: 50.0 mg/kg/injection, schedule: Q01DX005 (ip), vehicle: saline
[2] = dose: 100.0 mg/kg/injection, schedule: Q01DX005 (ip), vehicle: saline
[3] = dose: 200.0 mg/kg/injection, schedule: Q01DX005 (ip), vehicle: saline
[4] = dose: 50.0 mg/kg/injection, schedule: Q01DX009 (ip), vehicle: Klucel (hydroxypropylcellulose) (HPC)
[5] = dose: 100.0 mg/kg/injection, schedule: Q01DX009 (ip), vehicle: Klucel (hydroxypropylcellulose) (HPC)
[6] = dose: 200.0 mg/kg/injection, schedule: Q01DX009 (ip), vehicle: Klucel (hydroxypropylcellulose) (HPC)
[7] = dose: 50.0 mg/kg/injection, schedule: Q01DX005 (ip), vehicle: saline with Tween-80
[8] = dose: 100.0 mg/kg/injection, schedule: Q01DX005 (ip), vehicle: saline with Tween-80
[9] = dose: 200.0 mg/kg/injection, schedule: Q01DX005 (ip), vehicle: saline with Tween-80
[10] = dose: 100.0 mg/kg/injection, schedule: Q04DX003 (ip), vehicle: saline with Tween-80
[11] = dose: 200.0 mg/kg/injection, schedule: Q04DX003 (ip), vehicle: saline with Tween-80
[12] = dose: 400.0 mg/kg/injection, schedule: Q04DX003 (ip), vehicle: saline with Tween-80
[13] = dose: 50.0 mg/kg/injection, schedule: Q01DX005 (ip), vehicle: Klucel (hydroxypropylcellulose) (HPC)
[14] = dose: 100.0 mg/kg/injection, schedule: Q01DX005 (ip), vehicle: Klucel (hydroxypropylcellulose) (HPC)
[15] = dose: 200.0 mg/kg/injection, schedule: Q01DX005 (ip), vehicle: Klucel (hydroxypropylcellulose) (HPC)
[16] = dose: 50.0 mg/kg/injection, schedule: Q01DX009 (ip), vehicle: saline
[17] = dose: 100.0 mg/kg/injection, schedule: Q01DX009 (ip), vehicle: saline
[18] = dose: 200.0 mg/kg/injection, schedule: Q01DX009 (ip), vehicle: saline
[19] = dose: 1.56 mg/kg/injection, schedule: Q01DX009 (ip), vehicle: water
[20] = dose: 25.0 mg/kg/injection, schedule: Q01DX009 (ip), vehicle: water
[21] = dose: 60.0 mg/kg/injection, schedule: Q01DX005 (ip), vehicle: saline with Tween-80
[22] = dose: 120.0 mg/kg/injection, schedule: Q01DX005 (ip), vehicle: saline with Tween-80
[23] = dose: 240.0 mg/kg/injection, schedule: Q01DX005 (ip), vehicle: saline with Tween-80

CCN(CC)CCOC(=O)C(C(=O)OCCN(CC)CC)C1CCCC1
T/C [1]: 94 % of control
T/C [2]: 92 % of control
T/C [3]: 100 % of control

CC(=O)OC1=CC(=O)N(C(=O)c2ccccc2)C1
T/C [4]: 105 % of control
T/C [5]: 116 % of control
T/C [6]: 113 % of control

O=S(=O)(Nc1ccccn1)c1ccc(N=Cc2c3ccccc3nc3cc(Cl)ccc23)cc1
T/C [7]: 91 % of control
T/C [8]: 88 % of control

Nc1nc2c(c(=O)[nH]1)NC(CCNc1ccc(C(=O)O)cc1)CN2 (centres undefined)
T/C (dose: 12.5 mg/kg/injection, schedule: Q01DX009 (ip), vehicle: saline with Tween-80): 104 % of control
T/C (dose: 12.5 mg/kg/injection, schedule: Q04DX003 (ip), vehicle: saline with Tween-80): 90 % of control
T/C (dose: 25.0 mg/kg/injection, schedule: Q01DX009 (ip), vehicle: saline with Tween-80): 113 % of control
T/C (dose: 25.0 mg/kg/injection, schedule: Q04DX003 (ip), vehicle: saline with Tween-80): 95 % of control
T/C (dose: 50.0 mg/kg/injection, schedule: Q04DX003 (ip), vehicle: saline with Tween-80): 113 % of control

CCC(=O)CC1(C(=O)OC)NC(=S)NC(=O)C1C#N (centres undefined)
T/C (dose: 60.0 mg/kg/injection, schedule: Q01DX005 (ip), vehicle: Klucel (hydroxypropylcellulose) (HPC)): 102 % of control
T/C (dose: 120.0 mg/kg/injection, schedule: Q01DX005 (ip), vehicle: Klucel (hydroxypropylcellulose) (HPC)): 103 % of control
T/C (dose: 240.0 mg/kg/injection, schedule: Q01DX005 (ip), vehicle: Klucel (hydroxypropylcellulose) (HPC)): 100 % of control

NC1(c2ccccc2)C2CC3CC(C2)CC1C3 (centres undefined)
T/C (dose: 25.0 mg/kg/injection, schedule: Q04DX003 (ip), vehicle: Klucel (hydroxypropylcellulose) (HPC)): 101 % of control
T/C (dose: 50.0 mg/kg/injection, schedule: Q04DX003 (ip), vehicle: Klucel (hydroxypropylcellulose) (HPC)): 102 % of control
T/C (dose: 100.0 mg/kg/injection, schedule: Q04DX003 (ip), vehicle: Klucel (hydroxypropylcellulose) (HPC)): 109 % of control

O=C(O)Cc1c[nH]c2c(Cl)ccc(Cl)c12
T/C (dose: 100.0 mg/kg/injection, schedule: Q01DX001 (ip), vehicle: saline with Tween-80): 101 % of control
T/C (dose: 200.0 mg/kg/injection, schedule: Q01DX001 (ip), vehicle: saline with Tween-80): 100 % of control

Cc1cc[n+](C2=C(Nc3cc(C)cc(C)c3)C(=O)c3ccccc3C2=O)cc1
T/C [7]: 111 % of control
T/C [8]: 119 % of control
T/C [9]: 90 % of control

CC1(c2ccco2)NC(=O)NC1=O (centres undefined)
T/C [10]: 90 % of control
T/C [11]: 100 % of control
T/C [12]: 90 % of control

CNC(=O)c1ccc(OC)cc1C1(O)c2ccccc2CCc2ccccc21
T/C [13]: 92 % of control
T/C [14]: 92 % of control
T/C [15]: 89 % of control

CN(C)P(=O)(N(C)C)N1CCC1
T/C [16]: 104 % of control
T/C [17]: 112 % of control

CC1CCC(C)(C(O)c2ccc(C(O)C3(C)CCC(C)C3(C)C)cc2)C1(C)C (centres undefined)
T/C [16]: 86 % of control
T/C (dose: 50.0 mg/kg/injection, schedule: Q01DX009 (ip), vehicle: suspension in saline): 92 % of control
T/C (dose: 100.0 mg/kg/injection, schedule: Q01DX009 (ip), vehicle: suspension in saline): 91 % of control
T/C [18]: 89 % of control

OCC1OC(n2nnc3cc[nH]c(=S)c32)C(O)C1O (centres undefined)
T/C [19]: 106 % of control
T/C (dose: 3.13 mg/kg/injection, schedule: Q01DX009 (ip), vehicle: water): 99 % of control
T/C (dose: 6.25 mg/kg/injection, schedule: Q01DX009 (ip), vehicle: water): 98 % of control
T/C (dose: 12.5 mg/kg/injection, schedule: Q01DX009 (ip), vehicle: water): 107 % of control
T/C [20]: 97 % of control

COc1cccc(C(=O)O)c1OC
T/C [10]: 100 % of control
T/C [11]: 100 % of control
T/C [12]: 90 % of control

COC(=O)c1ccc(C(=O)OC)c2nn3c(N)nnc3nc12
T/C (dose: 60.0 mg/kg/injection, schedule: Q01DX005 (ip), vehicle: saline): 110 % of control
T/C (dose: 120.0 mg/kg/injection, schedule: Q01DX005 (ip), vehicle: saline): 100 % of control
T/C (dose: 240.0 mg/kg/injection, schedule: Q01DX005 (ip), vehicle: saline): 100 % of control

C=C(C)CN(CCC#N)CC(=C)C
T/C [7]: 102 % of control
T/C [8]: 105 % of control
T/C [9]: 101 % of control

O=[N+]([O-])c1cccc2c1ccc1nonc12
T/C [7]: 99 % of control
T/C [8]: 94 % of control
T/C [9]: 97 % of control

CC(C)=Cc1cc(-c2cc(C=C(C)C)[nH]n2)n[nH]1
T/C [21]: 97 % of control
T/C [22]: 100 % of control
T/C [23]: 102 % of control

CCN1C(=O)c2ccccc2C1=O
T/C [16]: 101 % of control
T/C [17]: 90 % of control
T/C [18]: 110 % of control

CCOc1cc2c(Cl)ncnc2c(OCC)c1OCC
T/C (dose: 50.0 mg/kg/injection, schedule: Q01DX009 (ip), vehicle: saline with Tween-80): 105 % of control
T/C (dose: 100.0 mg/kg/injection, schedule: Q01DX009 (ip), vehicle: saline with Tween-80): 91 % of control
T/C (dose: 200.0 mg/kg/injection, schedule: Q01DX009 (ip), vehicle: saline with Tween-80): 106 % of control

CCN(CC)/C(N)=N/O
T/C (dose: 2.5 mg/kg/injection, schedule: Q01DX009 (ip), vehicle: saline): 95 % of control
T/C (dose: 5.0 mg/kg/injection, schedule: Q01DX009 (ip), vehicle: saline): 104 % of control
T/C (dose: 10.0 mg/kg/injection, schedule: Q01DX009 (ip), vehicle: saline): 102 % of control

N[C@H]1CC[C@@H](C(=O)O)C1
T/C [1]: 109 % of control
T/C [2]: 101 % of control
T/C [3]: 108 % of control

CC(C)(C)NCC(O)CCl (centres undefined)
T/C [20]: 113 % of control
T/C (dose: 50.0 mg/kg/injection, schedule: Q01DX009 (ip), vehicle: water): 99 % of control
T/C (dose: 100.0 mg/kg/injection, schedule: Q01DX009 (ip), vehicle: water): 99 % of control
T/C (dose: 200.0 mg/kg/injection, schedule: Q01DX009 (ip), vehicle: water): 103 % of control

Nc1ccn([C@@H]2C=C(CO)[C@@H](O)[C@H]2O)c(=O)n1
T/C (dose: 0.5 mg/kg/injection, schedule: Q01DX009 (ip), vehicle: saline): 150 % of control
T/C (dose: 1.0 mg/kg/injection, schedule: Q01DX009 (ip), vehicle: saline): 188 % of control
T/C (dose: 2.25 mg/kg/injection, schedule: Q01DX009 (ip), vehicle: saline): 111 % of control and 87 % of control

COc1ccc(CCN2C(=O)C(=O)N(c3ccc(C)cc3)C2=O)cc1OC
T/C [4]: 96 % of control
T/C [5]: 97 % of control
T/C [6]: 104 % of control

COc1cccc2c1C(=O)c1c(O)c3c(c(O)c1C2=O)CC(O)(C(O)CO)CC3OC1CC(N2CCCCC2)C(O)C(C)O1 (centres undefined)
T/C (dose: 0.39 mg/kg/injection, schedule: Q01DX009 (ip), vehicle: water): 115 % of control
T/C [19]: 153 % of control and 157 % of control
T/C (dose: 2.4 mg/kg/injection, schedule: Q04DX003 (ip), vehicle: water): 100 % of control
T/C (dose: 4.7 mg/kg/injection, schedule: Q04DX003 (ip), vehicle: water): 106 % of control
T/C (dose: 9.4 mg/kg/injection, schedule: Q04DX003 (ip), vehicle: water): 114 % of control and 124 % of control
T/C (dose: 18.8 mg/kg/injection, schedule: Q04DX003 (ip), vehicle: water): 124 % of control
T/C (dose: 75.0 mg/kg/injection, schedule: Q04DX003 (ip), vehicle: water): 101 % of control

N#Cc1c(N2CCOCC2)c(-c2ccccc2)c(N2CCOCC2)n2c1nc1ccccc12
T/C [21]: 90 % of control
T/C [22]: 96 % of control
T/C [23]: 87 % of control

Cc1nc(Nc2ccccc2Cl)c2ccsc2n1
T/C [13]: 100 % of control
T/C [14]: 93 % of control
T/C [15]: 87 % of control

Cc1ccc(NC(=O)N2CC(C)OC(C)C2)cc1[N+](=O)[O-] (centres undefined)
T/C [13]: 103 % of control
T/C [14]: 99 % of control
T/C [15]: 94 % of control
